Data taken from PubChem BioAssay AID1963442 (Molecular Pharmacology Branch, DTP, NCI, 2024).

System: MPNST complex spheroid with HUVEC/MSC, growth, % test/control
Experiment: Anticancer human tumor MPNST cell line growth inhibition [Asc];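 further: compounds left on spheroids for seven days before reading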
Details: for IC50: curve of first compound; for viability, T/C: stronger effect = lower value
Summary of the method: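 Concentration series start at each agent's clinical Cmax, or at 10 microM when none is established, and drop in half-log steps; agents are applied alone or together to complex spheroids built with HUVEC and hMSC.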

[1] = second compound 0.03 µM, first compound 0.0316 µM
[2] = second compound 0.03 µM, first compound 0.1 µM
[3] = second compound 0.03 µM, first compound 0.316 µM
[4] = second compound 0.03 µM, first compound 1 µM
[5] = second compound 0.03 µM, first compound 3.16 µM
[6] = second compound 0.03 µM, first compound 10 µM
[7] = second compound 0.0949 µM, first compound 0.0316 µM
[8] = second compound 0.0949 µM, first compound 0.1 µM
[9] = second compound 0.0949 µM, first compound 0.316 µM
[10] = second compound 0.0949 µM, first compound 1 µM
[11] = second compound 0.0949 µM, first compound 3.16 µM
[12] = second compound 0.0949 µM, first compound 10 µM
[13] = second compound 0.3 µM, first compound 0.0316 µM
[14] = second compound 0.3 µM, first compound 0.1 µM
[15] = second compound 0.3 µM, first compound 0.316 µM
[16] = second compound 0.3 µM, first compound 1 µM
[17] = second compound 0.3 µM, first compound 3.16 µM
[18] = second compound 0.3 µM, first compound 10 µM
[19] = second compound 0.949 µM, first compound 0.0316 µM
[20] = second compound 0.949 µM, first compound 0.1 µM
[21] = second compound 0.949 µM, first compound 0.316 µM
[22] = second compound 0.949 µM, first compound 1 µM
[23] = second compound 0.949 µM, first compound 3.16 µM
[24] = second compound 0.949 µM, first compound 10 µM
[25] = second compound 3 µM, first compound 0.0316 µM
[26] = second compound 3 µM, first compound 0.1 µM
[27] = second compound 3 µM, first compound 0.316 µM
[28] = second compound 3 µM, first compound 1 µM
[29] = second compound 3 µM, first compound 3.16 µM
[30] = second compound 3 µM, first compound 10 µM

SMILES	IC50 (second compound 0.03 µM) [µM]	IC50 (second compound 0.0949 µM) [µM]	IC50 (second compound 0.3 µM) [µM]	IC50 (second compound 0.949 µM) [µM]	IC50 (second compound 3 µM) [µM]	viability, T/C [1] [%]	viability, T/C [2] [%]	viability, T/C [3] [%]	viability, T/C [4] [%]	viability, T/C [5] [%]	viability, T/C [6] [%]	viability, T/C [7] [%]	viability, T/C [8] [%]	viability, T/C [9] [%]	viability, T/C [10] [%]	viability, T/C [11] [%]	viability, T/C [12] [%]	viability, T/C [13] [%]	viability, T/C [14] [%]	viability, T/C [15] [%]	other results
C=C(F)C(=O)N1CCN(c2nc(OCC3CCCN3C)nc3c2CCN(c2cccc4cccc(Cl)c24)C3)CC1CC#N (stereo not given) + CCN1C(C(=O)NC23CCC(C(=O)O)(CC2)CC3)C(c2cccc(Cl)c2F)C2(C(=O)Nc3cc(Cl)ccc32)C12CCCCC2	> 10	> 10	> 10	> 10	3.89	56.3	61.1	65.2	63.1	72.9	65.6	87.5	59	77.5	75.6	67	66.2	92.4	85.3	106	viability, T/C [16]: 63.6%; viability, T/C [17]: 82.8%; viability, T/C [18]: 68.8%; viability, T/C [19]: 88.5%; viability, T/C [20]: 80.3%; viability, T/C [21]: 97.5%; viability, T/C [22]: 62.1%; viability, T/C [23]: 55.4%; viability, T/C [24]: 57%; viability, T/C [25]: 84.8%; viability, T/C [26]: 74.8%; viability, T/C [27]: 73%; viability, T/C [28]: 60.8%; viability, T/C [29]: 50.8%; viability, T/C [30]: 42.7%
C=CC(=O)N1CCN(c2nc(=O)n(-c3c(C)ccnc3C(C)C)c3nc(-c4c(O)cccc4F)c(F)cc23)C(C)C1 (stereo not given) + CCN1C(C(=O)NC23CCC(C(=O)O)(CC2)CC3)C(c2cccc(Cl)c2F)C2(C(=O)Nc3cc(Cl)ccc32)C12CCCCC2	> 10	> 10	> 10	> 10	> 10	62.4	76.1	73.3	87.7	106	108	84.9	85.3	99.8	103	98.8	124	75.7	85.3	93.6	viability, T/C [16]: 94.5%; viability, T/C [17]: 90.2%; viability, T/C [18]: 101%; viability, T/C [19]: 77.7%; viability, T/C [20]: 71%; viability, T/C [21]: 90.6%; viability, T/C [22]: 77.7%; viability, T/C [23]: 81%; viability, T/C [24]: 117%; viability, T/C [25]: 85.9%; viability, T/C [26]: 76.5%; viability, T/C [27]: 59%; viability, T/C [28]: 75.8%; viability, T/C [29]: 79.8%; viability, T/C [30]: 89.1%
